Measured values reported in patent US10993951B2, “Fosfomycin formulation for parenteral administration” (priority 2016, dated 2021).
Converted amounts (≈) assume the structure as drawn. Like-named read-outs stand apart in the source and are kept apart here.

Assays:
Assay in all cases: MIC by tube dilution in microtiter plates, stored fosfomycin solution
Format in all cases: cell-based
Escherichia coli AG 1215 = conditions: read-out: minimal inhibitory concentration (MIC)
From the text: (§1) The objective of the present investigation was to find out whether the antimicrobial activity of fosfomycin with a pH suitable for intravenous administration is maintained in a solvent suitable for intravenous use. For this, fosfomycin disodium (14.5 mmol sodium/g) and succinic acid were used to adjust the pH (0.025 grams of succinic acid per gram of fosfomycin).
(§2) A stock solution of 4 g of fosfomycin disodium and succinic acid (0.025 grams of succinic acid per gram of fosfomycin, corresponding to about 3 g of fosfomycin) in 10 ml distilled water was prepared and divided into 5 cryotubes at 2 ml each, and the solution was exposed at different temperatures as follows:
(§3) Aliquots of 2 ml of the sample were stored at −80° C., at refrigerator temperature (2-8° C.), at room temperature (20-25° C.), and at 45-65° C. until the test end. Another 2 ml of the stock solution were stored at refrigerator temperature (2-8° C.) and autoclaved before the tests at 125° C. for 30 minutes. After that, all samples were tested for their antimicrobioal activity.
(§4) To determine the antimicrobial activity of fosfomycin, the minimal inhibitory concentration (MIC) of the 4 mentioned bacteria strains was determined by a tube dilution method in microtiter plates using Mueller-Hinton broth. For the inoculation of the microtiter plates, the inoculum was adjusted to 1.5×104 germs/ml. The evaluation was made after 24 hours of incubation at 37° C.
(§5) Samples were taken, starting with 2,000 μg/ml test substance, diluted by a factor 2. Serial dilutions of 2,000 μg/ml to […] were prepared.

[1] = test system: Staphylococcus aureus ATTC 49775; conditions: read-out: minimal inhibitory concentration (MIC)
From the text: as §1, §2, §3, §4, §5

[2] = test system: Staphylococcus hominis AG 1115; conditions: AG1115, 125 °C (refrigerator storage, autoclaved 30 minutes before tests), read-out: minimal inhibitory concentration (MIC)
From the text: as §1, §2, §3, §4, §5

`C[C@@H]1O[C@@H]1P(=O)(O)O` [Fosfomycin, fosfomycin] was tested, and the MIC (Escherichia coli AG 1215; AG1215, 0 h, storage temp. 4-8 °C, storage period 0 days) was 62.5 µg/mL (≈ 453 µM), the MIC (Escherichia coli AG 1215; AG1215, 0 h, storage temp. 20-25 °C, storage period 0 days) was 250 µg/mL (≈ 1810 µM) and the MIC (Escherichia coli AG 1215; AG1215, 0 h, storage temp. 45-65 °C, storage period 0 days) was 62.5 µg/mL (≈ 453 µM). For the same compound, the MIC (Escherichia coli AG 1215; AG1215, 0 h, storage temp. −80 °C, storage period 0 days) was 62.5 µg/mL (≈ 453 µM), the MIC (Escherichia coli AG 1215; AG1215, 125 °C (refrigerator storage, autoclaved 30 minutes before tests), storage period 0 days) was 125 µg/mL (≈ 905 µM) and the MIC (Escherichia coli AG 1215; AG1215, 125 °C (refrigerator storage, autoclaved 30 minutes before tests), storage period 19 days) was 125 µg/mL (≈ 905 µM). The MIC (Escherichia coli AG 1215; AG1215, 125 °C (refrigerator storage, autoclaved 30 minutes before tests), storage period 27 days) was 62.5 µg/mL (≈ 453 µM), the MIC (Escherichia coli AG 1215; AG1215, 125 °C (refrigerator storage, autoclaved 30 minutes before tests), storage period 59 days) was 31.2 µg/mL (≈ 226 µM) and the MIC (Escherichia coli AG 1215; AG1215, 125 °C (refrigerator storage, autoclaved 30 minutes before tests), storage period 64 days) was 62.5 µg/mL (≈ 453 µM). The MIC (Escherichia coli AG 1215; AG1215, 125 °C (refrigerator storage, autoclaved 30 minutes before tests), storage period 92 days) was 125 µg/mL (≈ 905 µM), the MIC (Escherichia coli AG 1215; AG1215, 456 h, storage temp. 4-8 °C, storage period 19 days) was 62.5 µg/mL (≈ 453 µM) and the MIC (Escherichia coli AG 1215; AG1215, 456 h, storage temp. 20-25 °C, storage period 19 days) was 125 µg/mL (≈ 905 µM). The MIC (Escherichia coli AG 1215; AG1215, 456 h, storage temp. 45-65 °C, storage period 19 days) was 250 µg/mL (≈ 1810 µM), the MIC (Escherichia coli AG 1215; AG1215, 456 h, storage temp. −80 °C, storage period 19 days) was 125 µg/mL (≈ 905 µM) and the MIC (Escherichia coli AG 1215; AG1215, 648 h, storage temp. 20-25 °C, storage period 27 days) was 31.2 µg/mL (≈ 226 µM). The MIC (Escherichia coli AG 1215; AG1215, 648 h, storage temp. 45-65 °C, storage period 27 days) was 31.2 µg/mL (≈ 226 µM), the MIC (Escherichia coli AG 1215; AG1215, 648 h, storage temp. −80 °C, storage period 27 days) was 62.5 µg/mL (≈ 453 µM) and the MIC (Escherichia coli AG 1215; AG1215, storage temp. 4-8 °C, storage period 92 days) was 62.5 µg/mL (≈ 453 µM). It also gave an MIC (Escherichia coli AG 1215; AG1215, storage temp. 20-25 °C, storage period 59 days) of 31.2 µg/mL (≈ 226 µM), an MIC (Escherichia coli AG 1215; AG1215, storage temp. 20-25 °C, storage period 64 days) of 31.2 µg/mL (≈ 226 µM) and an MIC (Escherichia coli AG 1215; AG1215, storage temp. 20-25 °C, storage period 92 days) of 125 µg/mL (≈ 905 µM). It also gave an MIC (Escherichia coli AG 1215; AG1215, storage temp. 45-65 °C, storage period 59 days) of 62.5 µg/mL (≈ 453 µM), an MIC (Escherichia coli AG 1215; AG1215, storage temp. 45-65 °C, storage period 64 days) of 62.5 µg/mL (≈ 453 µM) and an MIC (Escherichia coli AG 1215; AG1215, storage temp. 45-65 °C, storage period 92 days) of 125 µg/mL (≈ 905 µM). It also gave an MIC (Escherichia coli AG 1215; AG1215, storage temp. −80 °C, storage period 59 days) of 15.6 µg/mL (≈ 113 µM), an MIC (Escherichia coli AG 1215; AG1215, storage temp. −80 °C, storage period 64 days) of 62.5 µg/mL (≈ 453 µM) and an MIC (Escherichia coli AG 1215; AG1215, storage temp. −80 °C, storage period 92 days) of 62.5 µg/mL (≈ 453 µM). For the same compound, the MIC ([1]; ATTC49775, 0 h, storage temp. 20-25 °C, storage period 0 days) was 3.9 µg/mL (≈ 28.2 µM), the MIC ([1]; ATTC49775, 0 h, storage temp. 45-65 °C, storage period 0 days) was 7.8 µg/mL (≈ 56.5 µM) and the MIC ([1]; ATTC49775, 0 h, storage temp. −80 °C, storage period 0 days) was 7.8 µg/mL (≈ 56.5 µM). It also gave an MIC ([1]; ATTC49775, 125 °C (refrigerator storage, autoclaved 30 minutes before tests), storage period 0 days) of 15.6 µg/mL (≈ 113 µM), an MIC ([1]; ATTC49775, 125 °C (refrigerator storage, autoclaved 30 minutes before tests), storage period 19 days) of 7.8 µg/mL (≈ 56.5 µM) and an MIC ([1]; ATTC49775, 125 °C (refrigerator storage, autoclaved 30 minutes before tests), storage period 31 days) of 7.8 µg/mL (≈ 56.5 µM). For the same compound, the MIC ([1]; ATTC49775, 456 h, storage temp. 20-25 °C, storage period 19 days) was 15.6 µg/mL (≈ 113 µM), the MIC ([1]; ATTC49775, 456 h, storage temp. 45-65 °C, storage period 19 days) was 7.8 µg/mL (≈ 56.5 µM) and the MIC ([1]; ATTC49775, 456 h, storage temp. −80 °C, storage period 19 days) was 3.9 µg/mL (≈ 28.2 µM). The MIC ([1]; ATTC49775, storage temp. 20-25 °C, storage period 31 days) was 15.6 µg/mL (≈ 113 µM), the MIC ([1]; ATTC49775, storage temp. 45-65 °C, storage period 31 days) was 7.8 µg/mL (≈ 56.5 µM) and the MIC ([1]; ATTC49775, storage temp. −80 °C, storage period 31 days) was 3.9 µg/mL (≈ 28.2 µM). The MIC ([2]; storage period 27 days) was 15.6 µg/mL (≈ 113 µM), the MIC ([2]; storage period 31 days) was 7.8 µg/mL (≈ 56.5 µM) and the MIC ([2]; storage period 54 days) was 7.8 µg/mL (≈ 56.5 µM). The MIC ([2]; storage period 59 days) was 15.6 µg/mL (≈ 113 µM), the MIC ([2]; storage period 64 days) was 31.2 µg/mL (≈ 226 µM) and the MIC ([2]; storage period 92 days) was 31.2 µg/mL (≈ 226 µM).
